Columns and labels:
Test in all cases: KINOMEscan competition binding
Settings in all cases: compound 10.0 µM
ACVR2A (human) = ACVR2A (human) (UniProt P27037)
ADCK4 (human) = ADCK4 (human) (UniProt Q96D53)
ALK (human) = ALK (human) (UniProt Q9UM73)
AURKB (human) = AURKB (human) (UniProt Q96GD4)
BLK (human) = BLK (human) (UniProt P51451)
CAMK1G (human) = CAMK1G (human) (UniProt Q96NX5)
CAMK2A (human) = CAMK2A (human) (UniProt Q9UQM7)
CDC42BPB (human) = CDC42BPB (human) (UniProt Q9Y5S2)
CDK18 (human) = CDK18 (human) (UniProt Q07002)
CDK5 (human) = CDK5 (human) (UniProt Q00535)
CHEK1 (human) = CHEK1 (human) (UniProt O14757)
CSNK2A2 (human) = CSNK2A2 (human) (UniProt P19784)
DCLK1 (human) = DCLK1 (human) (UniProt O15075)
EGFR (human) = EGFR (human) (UniProt P00533)
[1] = tested on: EGFR (human), P00533 [752-759 del]
[2] = tested on: EGFR (human), P00533 [T790M/L858R]
EIF2AK2 (human) = EIF2AK2 (human) (UniProt P19525)
EIF2AK2 (human), sequence (P19525 whole entry, looked up): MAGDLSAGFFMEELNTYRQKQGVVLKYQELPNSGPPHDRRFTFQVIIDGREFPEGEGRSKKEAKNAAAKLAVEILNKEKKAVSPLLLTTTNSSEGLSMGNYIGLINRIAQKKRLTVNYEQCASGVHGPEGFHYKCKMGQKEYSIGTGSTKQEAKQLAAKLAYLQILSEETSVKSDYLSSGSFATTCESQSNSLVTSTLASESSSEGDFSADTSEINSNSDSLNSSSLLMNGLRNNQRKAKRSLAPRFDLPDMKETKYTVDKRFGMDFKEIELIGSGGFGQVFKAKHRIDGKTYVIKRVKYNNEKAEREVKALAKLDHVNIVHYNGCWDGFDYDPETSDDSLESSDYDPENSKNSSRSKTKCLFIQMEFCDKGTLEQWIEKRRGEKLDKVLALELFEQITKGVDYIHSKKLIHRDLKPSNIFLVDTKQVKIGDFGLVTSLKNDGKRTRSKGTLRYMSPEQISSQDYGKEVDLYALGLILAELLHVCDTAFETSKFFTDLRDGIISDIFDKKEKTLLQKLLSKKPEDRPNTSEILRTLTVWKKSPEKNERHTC

IRAK4 (human) = IRAK4 (human) (UniProt Q9NWZ3)
[3] = molecular target: JAK1 JH1 catalytic (human) (UniProt P23458)
MAP2K2 (human) = MAP2K2 (human) (UniProt P36507)
MAP4K1 (human) = MAP4K1 (human) (UniProt Q92918)
MAP4K1 (human), sequence (Q92918 whole entry, looked up): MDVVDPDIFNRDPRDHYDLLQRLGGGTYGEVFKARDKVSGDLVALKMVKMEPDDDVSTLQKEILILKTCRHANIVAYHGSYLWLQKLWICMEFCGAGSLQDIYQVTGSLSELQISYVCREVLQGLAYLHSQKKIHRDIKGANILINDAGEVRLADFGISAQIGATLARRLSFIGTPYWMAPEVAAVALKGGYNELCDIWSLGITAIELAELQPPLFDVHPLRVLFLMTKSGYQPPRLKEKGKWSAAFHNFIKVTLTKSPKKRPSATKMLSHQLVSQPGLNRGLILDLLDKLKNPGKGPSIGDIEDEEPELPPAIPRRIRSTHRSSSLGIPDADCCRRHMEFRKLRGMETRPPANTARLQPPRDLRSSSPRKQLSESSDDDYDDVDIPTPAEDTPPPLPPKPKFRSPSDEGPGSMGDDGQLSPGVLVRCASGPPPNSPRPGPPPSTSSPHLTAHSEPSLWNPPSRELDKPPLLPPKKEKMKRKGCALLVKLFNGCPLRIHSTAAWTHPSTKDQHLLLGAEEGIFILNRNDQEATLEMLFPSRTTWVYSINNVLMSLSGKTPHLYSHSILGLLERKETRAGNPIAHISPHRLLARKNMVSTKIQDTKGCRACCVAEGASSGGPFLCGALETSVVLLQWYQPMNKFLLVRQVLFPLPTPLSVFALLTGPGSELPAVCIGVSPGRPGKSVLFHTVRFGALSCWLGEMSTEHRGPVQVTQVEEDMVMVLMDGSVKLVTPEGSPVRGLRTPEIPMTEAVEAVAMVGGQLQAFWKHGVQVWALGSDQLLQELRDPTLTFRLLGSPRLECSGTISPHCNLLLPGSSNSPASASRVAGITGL

MAP4K3 (human) = MAP4K3 (human) (UniProt Q8IVH8)
MAPK12 (human) = MAPK12 (human) (UniProt P53778)
MAPK12 (human), sequence (P53778 whole entry, looked up): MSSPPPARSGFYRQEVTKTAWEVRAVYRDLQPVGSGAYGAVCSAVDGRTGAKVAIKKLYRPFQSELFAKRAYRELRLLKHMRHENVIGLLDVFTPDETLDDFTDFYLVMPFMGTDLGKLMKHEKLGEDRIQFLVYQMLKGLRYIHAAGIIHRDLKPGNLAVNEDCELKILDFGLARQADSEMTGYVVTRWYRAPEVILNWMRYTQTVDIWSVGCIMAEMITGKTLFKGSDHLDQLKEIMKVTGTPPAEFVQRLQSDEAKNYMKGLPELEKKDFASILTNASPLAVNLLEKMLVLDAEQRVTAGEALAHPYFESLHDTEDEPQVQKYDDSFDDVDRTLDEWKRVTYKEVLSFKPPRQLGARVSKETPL

MAPK15 (human) = MAPK15 (human) (UniProt Q8TD08)
PIK3CB (human) = PIK3CB (human) (UniProt P42338)
PLK4 (human) = PLK4 (human) (UniProt O00444)
PRKX (human) = PRKX (human) (UniProt P51817)
PRKX (human), sequence (P51817 whole entry, looked up): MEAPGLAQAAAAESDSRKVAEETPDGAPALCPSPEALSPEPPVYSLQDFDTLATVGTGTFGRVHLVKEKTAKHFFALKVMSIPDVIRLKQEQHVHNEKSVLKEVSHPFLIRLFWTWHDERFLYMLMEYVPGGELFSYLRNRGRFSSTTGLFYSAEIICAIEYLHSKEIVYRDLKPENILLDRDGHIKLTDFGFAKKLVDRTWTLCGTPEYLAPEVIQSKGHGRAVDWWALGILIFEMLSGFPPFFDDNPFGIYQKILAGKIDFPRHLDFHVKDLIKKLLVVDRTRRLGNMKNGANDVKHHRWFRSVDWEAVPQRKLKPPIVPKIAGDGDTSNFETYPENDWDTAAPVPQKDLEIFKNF

PTK2 (human) = PTK2 (human) (UniProt Q05397)
RIOK3 (human) = RIOK3 (human) (UniProt O14730)
ROCK2 (human) = ROCK2 (human) (UniProt O75116)
SGK3 (human) = SGK3 (human) (UniProt Q96BR1)
SIK2 (human) = SIK2 (human) (UniProt Q9H0K1)
STK10 (human) = STK10 (human) (UniProt O94804)
STK33 (human) = STK33 (human) (UniProt Q9BYT3)
TBK1 (human) = TBK1 (human) (UniProt Q9UHD2)
TRPM6 (human) = TRPM6 (human) (UniProt Q9BX84)
TXK (human) = TXK (human) (UniProt P42681)
[4] = molecular target: TYK2 JH1 catalytic (human) (UniProt P29597)
TYRO3 (human) = TYRO3 (human) (UniProt Q06418)
ZAP70 (human) = ZAP70 (human) (UniProt P43403)
ZAP70 (human), sequence (P43403 whole entry, looked up): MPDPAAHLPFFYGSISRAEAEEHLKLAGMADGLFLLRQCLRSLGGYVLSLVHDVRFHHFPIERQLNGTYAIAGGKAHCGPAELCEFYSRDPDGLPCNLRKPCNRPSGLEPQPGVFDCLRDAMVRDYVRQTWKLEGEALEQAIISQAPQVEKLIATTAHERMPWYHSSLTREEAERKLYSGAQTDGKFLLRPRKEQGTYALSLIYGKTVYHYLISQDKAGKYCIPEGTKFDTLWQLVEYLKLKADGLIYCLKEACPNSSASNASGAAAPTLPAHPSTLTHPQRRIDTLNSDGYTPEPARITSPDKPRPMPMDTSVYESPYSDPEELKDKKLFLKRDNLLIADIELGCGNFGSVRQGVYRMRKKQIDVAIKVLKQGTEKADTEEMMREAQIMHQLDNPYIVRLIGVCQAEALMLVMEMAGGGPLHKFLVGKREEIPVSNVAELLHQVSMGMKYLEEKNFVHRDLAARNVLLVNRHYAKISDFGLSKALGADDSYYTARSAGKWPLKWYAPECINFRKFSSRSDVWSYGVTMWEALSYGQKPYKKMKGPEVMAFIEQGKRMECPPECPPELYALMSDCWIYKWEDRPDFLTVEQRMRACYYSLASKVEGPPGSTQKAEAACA

ADCK4 (human), sequence (Q96D53 whole entry, looked up): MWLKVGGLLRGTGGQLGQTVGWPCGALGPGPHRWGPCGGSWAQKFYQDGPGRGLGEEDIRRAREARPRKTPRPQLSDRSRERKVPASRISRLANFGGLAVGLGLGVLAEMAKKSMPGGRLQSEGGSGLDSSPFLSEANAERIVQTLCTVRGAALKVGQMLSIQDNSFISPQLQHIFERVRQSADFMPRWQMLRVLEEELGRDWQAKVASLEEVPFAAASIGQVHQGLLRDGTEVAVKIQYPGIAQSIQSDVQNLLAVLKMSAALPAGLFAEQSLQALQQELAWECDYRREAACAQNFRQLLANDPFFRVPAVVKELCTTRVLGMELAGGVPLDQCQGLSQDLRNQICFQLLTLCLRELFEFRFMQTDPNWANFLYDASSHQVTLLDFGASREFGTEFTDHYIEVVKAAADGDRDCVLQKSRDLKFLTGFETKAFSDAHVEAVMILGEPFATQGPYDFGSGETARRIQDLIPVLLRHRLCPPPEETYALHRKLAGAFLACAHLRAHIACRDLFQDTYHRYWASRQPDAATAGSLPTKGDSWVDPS
CDC42BPB (human), sequence (Q9Y5S2 whole entry, looked up): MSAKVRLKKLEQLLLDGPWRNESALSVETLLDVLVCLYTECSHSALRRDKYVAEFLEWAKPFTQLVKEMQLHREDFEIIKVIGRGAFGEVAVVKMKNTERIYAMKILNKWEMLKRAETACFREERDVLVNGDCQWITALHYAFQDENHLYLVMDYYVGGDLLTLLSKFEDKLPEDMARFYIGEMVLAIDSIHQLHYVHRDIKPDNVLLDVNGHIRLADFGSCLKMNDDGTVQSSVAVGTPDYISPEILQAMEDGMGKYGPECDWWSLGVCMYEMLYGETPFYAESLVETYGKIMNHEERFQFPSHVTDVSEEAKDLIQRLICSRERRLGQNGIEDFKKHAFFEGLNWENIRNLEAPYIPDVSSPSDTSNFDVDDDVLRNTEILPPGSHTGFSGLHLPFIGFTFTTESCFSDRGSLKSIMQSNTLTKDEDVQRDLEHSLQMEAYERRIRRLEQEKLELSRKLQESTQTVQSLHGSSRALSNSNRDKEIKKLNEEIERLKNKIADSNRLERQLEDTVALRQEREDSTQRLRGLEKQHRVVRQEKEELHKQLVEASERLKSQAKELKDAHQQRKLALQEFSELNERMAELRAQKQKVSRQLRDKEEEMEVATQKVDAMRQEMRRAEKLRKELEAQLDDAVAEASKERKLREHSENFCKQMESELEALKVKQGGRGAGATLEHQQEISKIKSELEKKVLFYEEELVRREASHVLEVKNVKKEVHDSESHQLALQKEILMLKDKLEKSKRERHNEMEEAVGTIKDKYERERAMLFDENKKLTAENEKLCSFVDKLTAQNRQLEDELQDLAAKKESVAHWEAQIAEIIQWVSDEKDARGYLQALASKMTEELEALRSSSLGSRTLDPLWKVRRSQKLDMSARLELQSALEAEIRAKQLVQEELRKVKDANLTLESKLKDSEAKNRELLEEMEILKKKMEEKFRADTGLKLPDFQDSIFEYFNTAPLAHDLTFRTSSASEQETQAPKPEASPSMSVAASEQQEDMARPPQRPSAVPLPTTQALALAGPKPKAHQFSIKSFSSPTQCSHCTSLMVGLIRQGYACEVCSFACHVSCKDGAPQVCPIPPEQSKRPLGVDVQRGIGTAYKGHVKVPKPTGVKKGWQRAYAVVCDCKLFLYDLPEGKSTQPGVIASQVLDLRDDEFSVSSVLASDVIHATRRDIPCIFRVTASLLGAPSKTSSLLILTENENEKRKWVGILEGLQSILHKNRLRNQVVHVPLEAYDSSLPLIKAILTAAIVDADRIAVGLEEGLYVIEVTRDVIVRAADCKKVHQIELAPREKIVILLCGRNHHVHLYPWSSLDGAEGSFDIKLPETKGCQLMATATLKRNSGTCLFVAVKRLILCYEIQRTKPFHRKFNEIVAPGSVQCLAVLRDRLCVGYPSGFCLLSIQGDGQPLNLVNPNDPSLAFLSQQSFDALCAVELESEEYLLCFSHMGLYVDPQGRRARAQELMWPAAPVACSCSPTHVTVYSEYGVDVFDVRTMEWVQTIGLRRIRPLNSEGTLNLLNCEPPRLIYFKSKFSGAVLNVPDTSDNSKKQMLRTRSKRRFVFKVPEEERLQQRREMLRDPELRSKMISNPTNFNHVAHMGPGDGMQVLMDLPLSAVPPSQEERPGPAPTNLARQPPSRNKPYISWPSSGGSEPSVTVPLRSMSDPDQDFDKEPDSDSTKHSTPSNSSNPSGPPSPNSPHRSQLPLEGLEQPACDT

Row | Compound | kinase still bound, per cent of control (ACVR2A (human)) [%] | kinase still bound, per cent of control (ADCK4 (human)) [%] | kinase still bound, per cent of control (ALK (human)) [%] | kinase still bound, per cent of control (AURKB (human)) [%] | kinase still bound, per cent of control (BLK (human)) [%] | kinase still bound, per cent of control (CAMK1G (human)) [%] | kinase still bound, per cent of control (CAMK2A (human)) [%] | kinase still bound, per cent of control (CDC42BPB (human)) [%] | kinase still bound, per cent of control (CDK18 (human)) [%] | kinase still bound, per cent of control (CDK5 (human)) [%] | kinase still bound, per cent of control (CHEK1 (human)) [%] | kinase still bound, per cent of control (CSNK2A2 (human)) [%] | kinase still bound, per cent of control (DCLK1 (human)) [%] | kinase still bound, per cent of control (EGFR (human)) [%] | kinase still bound, per cent of control [1] [%] | kinase still bound, per cent of control [2] [%] | kinase still bound, per cent of control (EIF2AK2 (human)) [%] | kinase still bound, per cent of control (IRAK4 (human)) [%] | kinase still bound, per cent of control [3] [%] | kinase still bound, per cent of control (MAP2K2 (human)) [%] | other results
1 | O=c1cc(N2CCOCC2)oc2c(-c3cccc4c3sc3ccccc34)cccc12 | 96 | 73 | 100 | 100 | 100 | 85 | 78 | 88 | 100 | 100 | 100 | 100 | 84 | 94 | 100 | 93 | 72 | 99 | 100 | 97 | kinase still bound, per cent of control (MAP4K1 (human)): 90%; kinase still bound, per cent of control (MAP4K3 (human)): 76%; kinase still bound, per cent of control (MAPK12 (human)): 99%; kinase still bound, per cent of control (MAPK15 (human)): 100%; kinase still bound, per cent of control (PIK3CB (human)): 0%; kinase still bound, per cent of control (PLK4 (human)): 90%; kinase still bound, per cent of control (PRKX (human)): 89%; kinase still bound, per cent of control (PTK2 (human)): 70%; kinase still bound, per cent of control (RIOK3 (human)): 100%; kinase still bound, per cent of control (ROCK2 (human)): 100%; kinase still bound, per cent of control (SGK3 (human)): 100%; kinase still bound, per cent of control (SIK2 (human)): 75%; kinase still bound, per cent of control (STK10 (human)): 100%; kinase still bound, per cent of control (STK33 (human)): 100%; kinase still bound, per cent of control (TBK1 (human)): 84%; kinase still bound, per cent of control (TRPM6 (human)): 100%; kinase still bound, per cent of control (TXK (human)): 91%; kinase still bound, per cent of control [4]: 75%; kinase still bound, per cent of control (TYRO3 (human)): 100%; kinase still bound, per cent of control (ZAP70 (human)): 100%
2 | CCN1CCN(C(=O)Cc2ccc(Nc3ncc(F)c(Nc4ccc(C(=O)Nc5ccccc5Cl)cc4)n3)cc2)CC1 | 2.2 | 0.45 | 22 | 14 | 28 | 39 | 68 | 100 | 43 | 79 | 100 | 7.8 | 74 | 26 | 56 | 76 | 15 | 100 | 6.9 | 57 | kinase still bound, per cent of control (MAP4K1 (human)): 38%; kinase still bound, per cent of control (MAP4K3 (human)): 42%; kinase still bound, per cent of control (MAPK12 (human)): 100%; kinase still bound, per cent of control (MAPK15 (human)): 54%; kinase still bound, per cent of control (PIK3CB (human)): 83%; kinase still bound, per cent of control (PLK4 (human)): 0.25%; kinase still bound, per cent of control (PRKX (human)): 76%; kinase still bound, per cent of control (PTK2 (human)): 28%; kinase still bound, per cent of control (RIOK3 (human)): 0.2%; kinase still bound, per cent of control (ROCK2 (human)): 75%; kinase still bound, per cent of control (SGK3 (human)): 100%; kinase still bound, per cent of control (SIK2 (human)): 20%; kinase still bound, per cent of control (STK10 (human)): 3.4%; kinase still bound, per cent of control (STK33 (human)): 35%; kinase still bound, per cent of control (TBK1 (human)): 5.6%; kinase still bound, per cent of control (TRPM6 (human)): 96%; kinase still bound, per cent of control (TXK (human)): 2.2%; kinase still bound, per cent of control [4]: 22%; kinase still bound, per cent of control (TYRO3 (human)): 79%; kinase still bound, per cent of control (ZAP70 (human)): 100%

Source: the kinase profiling compilation of Christmann-Franck et al. (2016)
